Results reported in US9556180B2, “Pyrazolo[3,4-d]pyrimidinone compounds as inhibitors of the P53/MDM2 interaction” (Novartis AG, priority 2013, dated 2017).

Key:
Assay type in all cases: binding
[1] = target: T1, p53-MDM2 interaction (human MDM2 protein, amino acids 2-188) (Homo sapiens, UniProt Q00987); assay: p53-MDM2 Assay 2: slightly modified TR-FRET assay; conditions: 0.1 nM MDM2, 0.1 nM Europium labeled streptavidin, Tecan genios Pro reader
T1 construct: human MDM2 protein (amino acids 2-188); made in house
Procedure: (§1) Time Resolved Fluorescence Energy Transfer (TR-FRET) Assay
(§2) The inhibition of p53-MDM2 and p53-MDM4 interactions is measured by time resolved fluorescence energy transfer (TR-FRET). Fluorescence energy transfer (or Foerster resonance energy transfer) describes an energy transfer between donor and acceptor fluorescent molecules. For this assay, human MDM2 protein (amino acids 2-188) and human MDM4 protein (amino acids 2-185), tagged with a C-terminal biotin moiety, are used in combination with a Europium labeled streptavidin (Perkin Elmer, Inc., Waltham, Mass., USA) serving as the donor fluorophore. The p53 derived, Cy5 labeled peptide Cy5-TFSDLWKLL (p53 aa18-26) is the energy acceptor. Upon excitation of the donor molecule at 340 nm, binding interaction between MDM2 or MDM4 and the p53 peptide induces energy transfer and enhanced response at the acceptor emission wavelength at 665 nm. Disruption of the formation of the p53-MDM2 or p53-MDM4 complex due to an inhibitor molecule binding to the p53 binding site of MDM2 or MDM4 results in increased donor emission at 620 nm. The ratiometric FRET assay readout is calculated from the raw data of the two distinct fluorescence signals measured in time resolved mode (fluorescence 665 nm/fluorescence 620 nm×1000).
(§3) After addition of 1.25 nM MDM2-biotinylated or 2.5 nM MDM4-biotinylated (internal preparations, both MDM2 and MDM4 are biotinylated at the C-terminal of the peptide construct), and 0.625 nM Europium labeled streptavidin (Perkin Elmer), the solution is pre-incubated for 15 minutes at room temperature, then 10 nM Cy5-p53 peptide (internal preparation, the Cy5 dye is directly bound to the N-terminal part of p53 peptide construct) is added before an incubation at room temperature for 15 minutes prior to reading the plate. For measurement of samples, a Victor II microplate reader (Perkin Elmer) is used with the following settings: Excitation 340 nm, Emission Donor 620 nm and Emission Acceptor 665 nm. IC50 values are calculated by curve fitting using XLfit. If not specified, reagents are purchased from Sigma-Aldrich Chemie GmBH, Buchs, Switzerland.
(§4) This assay was used to evaluate compounds displaying inhibition of p53-MDM2 interaction and p53-MDM4 interaction at IC50s of 0.005 to 50 μM (p53-MDM2 Assay 1 and p53-MDM4 Assay 1, respectively). For selected compounds displaying IC50s between […] on MDM2, a slightly modified assay is used with the following adaptations: 0.1 nM MDM2, 0.1 nM Europium labeled streptavidin and Tecan genios Pro is used as a microplate reader for the fluorescence measurements (p53-MDM2 Assay 2).

[2] = target: T1, p53-MDM2 interaction (human MDM2 protein, amino acids 2-188); assay: p53-MDM2 Assay 1: TR-FRET inhibition of p53-MDM2 interaction; conditions: 1.25 nM MDM2-biotinylated, 10 nM Cy5-p53 peptide
Procedure: as §1, §2, §3, §4

[3] = target: T2, p53-MDM4 interaction (human MDM4 protein, amino acids 2-185) (Homo sapiens, UniProt O15151); assay: p53-MDM4 Assay 1: TR-FRET inhibition of p53-MDM4 interaction; conditions: 2.5 nM MDM4-biotinylated, 10 nM Cy5-p53 peptide
T2 construct: human MDM4 protein (amino acids 2-185); made in house
T2 sequence (O15151 2-185): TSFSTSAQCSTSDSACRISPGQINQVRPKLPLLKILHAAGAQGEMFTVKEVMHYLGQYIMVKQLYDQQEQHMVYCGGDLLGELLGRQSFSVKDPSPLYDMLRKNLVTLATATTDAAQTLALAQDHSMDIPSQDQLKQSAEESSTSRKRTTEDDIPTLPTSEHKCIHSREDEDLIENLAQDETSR
Procedure: as §1, §2, §3, §4

T1 sequence (Q00987 2-188): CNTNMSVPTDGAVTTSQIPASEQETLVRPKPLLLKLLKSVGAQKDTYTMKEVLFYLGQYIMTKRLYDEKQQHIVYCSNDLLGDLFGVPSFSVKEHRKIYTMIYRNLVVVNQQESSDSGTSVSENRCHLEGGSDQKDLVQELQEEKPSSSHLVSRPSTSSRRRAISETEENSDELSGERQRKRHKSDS

Row | Compound | IC50 [1] [nM] | IC50 [2] [nM] | IC50 [3] [nM]
1 | COc1ncc(-n2nc3c(c2C(C)C)C(c2ccc(Cl)cc2C)N(c2cc(Cl)c(=O)n(C)c2)C(=O)N3)c(OC)n1 (stereo not shown) [Example 31, 5-(5-Chloro-1-methyl-6-oxo-1,6-dihydropyridin-3-yl)-4-(4-chloro-2-methylphenyl)-2-(2,4-dimethoxypyrimidin-5-yl)-3-isopropyl-4,5-dihydro-2H-pyrazolo[3,4-d]pyrimidin-6(7H)-one] | 0.29 |  | 
2 | COc1ccccc1-n1nc2c(c1C(C)C)C(c1ccc(Cl)cc1)N(c1ccc(=O)n(C)c1)C(=O)N2 (stereo not shown) [Example 20, 4-(4-Chloro-phenyl)-3-isopropyl-2-(2-methoxy-phenyl)-5-(1-methyl-6-oxo-1,6-dihydro-pyridin-3-yl)-2,4,5,7-tetrahydro-pyrazolo[3,4-d]pyrimidin-6-one] |  | 4.8 | 4730
3 | COc1ccccc1-n1nc2c(c1C(C)C)C(c1ccc(Cl)cc1C)N(c1cc(Cl)ccc1OCCN(C)C)C(=O)N2 (stereo not shown) [Example 12, 5-[5-Chloro-2-(2-dimethylamino-ethoxy)-phenyl]-4-(4-chloro-2-methyl-phenyl)-3-isopropyl-2-(2-methoxy-phenyl)-2,4,5,7-tetrahydro-pyrazolo[3,4-d]pyrimidin-6-one] |  | 2.5 | 2360
4 | COc1ccc(CN)cc1-n1nc2c(c1C(C)C)C(c1ccc(Cl)cc1C)N(c1cc(Cl)c(=O)n(C)c1)C(=O)N2 (stereo not shown) [Example 29, 2-(5-(Aminomethyl)-2-methoxyphenyl)-5-(5-chloro-1-methyl-6-oxo-1,6-dihydropyridin-3-yl)-4-(4-chloro-2-methylphenyl)-3-isopropyl-4,5-dihydro-2H-pyrazolo[3,4-d]pyrimidin-6(7H)-one] | 0.18 |  | 
5 | Cc1cc(Cl)ccc1C1c2c(nn(CCN(C)C)c2C(C)C)NC(=O)N1c1cccc(Cl)c1F (stereo not shown) [Example 9, 5-(3-chloro-2-fluoro-phenyl)-4-(4-chloro-2-methyl-phenyl)-2-(2-dimethylamino-ethyl)-3-isopropyl-2,4,5,7-tetrahydro-pyrazolo[3,4-d]pyrimidin-6-one] |  | 16.7 | 41700
6 | Cc1cc(Cl)ccc1[C@@H]1c2c(nn(Cc3ccccc3)c2C(C)C)NC(=O)N1c1cccc(Cl)c1F [Example 3, (R)-2-Benzyl-5-(3-chloro-2-fluorophenyl)-4-(4-chloro-2-methylphenyl)-3-isopropyl-4,5-dihydro-2H-pyrazolo[3,4-d]pyrimidin-6(7H)-one] |  | 146 | 39700
7 | COc1ccccc1-n1nc2c(c1C(C)C)C(c1ccc(Cl)cc1)N(c1cc(Cl)ccc1OCCN(C)C)C(=O)N2 (stereo not shown) [Example 17, 5-(5-Chloro-2-(3-(dimethylamino)ethoxy)phenyl)-4-(4-chlorophenyl)-3-isopropyl-2-(2-methoxyphenyl)-4,5-dihydro-2H-pyrazolo[3,4-d]pyrimidin-6(7H)-one] |  | 6.6 | 11600
8 | COc1ncc(-n2nc3c(c2C(C)C)C(c2ccc(Cl)cc2C)N(c2cc(Cl)cn(C)c2=O)C(=O)N3)c(OC)n1 (stereo not shown) [Example 32, 5-(5-Chloro-1-methyl-2-oxo-1,2-dihydropyridin-3-yl)-4-(4-chloro-2-methylphenyl)-2-(2,4-dimethoxypyrimidin-5-yl)-3-isopropyl-4,5-dihydro-2H-pyrazolo[3,4-d]pyrimidin-6(7H)-one] | 0.21 |  | 
9 | Cc1cc(Cl)ccc1[C@H]1c2c(nn(Cc3ccccc3)c2C(C)C)NC(=O)N1c1cccc(Cl)c1F [Example 2, (S)-2-Benzyl-5-(3-chloro-2-fluorophenyl)-4-(4-chloro-2-methylphenyl)-3-isopropyl-4,5-dihydro-2H-pyrazolo[3,4-d]pyrimidin-6(7H)-one] |  | 1.8 | 18500
10 | COc1ccc(CNC(C)=O)cc1-n1nc2c(c1C(C)C)C(c1ccc(Cl)cc1C)N(c1cc(Cl)c(=O)n(C)c1)C(=O)N2 (stereo not shown) [Example 30, N-(3-(5-(5-Chloro-1-methyl-6-oxo-1,6-dihydropyridin-3-yl)-4-(4-chloro-2-methylphenyl)-3-isopropyl-6-oxo-4,5,6,7-tetrahydro-2H-pyrazolo[3,4-d]pyrimidin-2-yl)-4-methoxybenzyl)acetamide] | 0.21 |  | 
11 | COc1ccc(C(N)=O)cc1-n1nc2c(c1C(C)C)C(c1ccc(Cl)cc1C)N(c1cc(Cl)ccc1C)C(=O)N2 (stereo not shown) [Example 28, 3-(4-(4-Chloro-2-methylphenyl)-5-(5-chloro-2-methylphenyl)-3-isopropyl-6-oxo-4,5,6,7-tetrahydro-2H-pyrazolo[3,4-d]pyrimidin-2-yl)-4-methoxybenzamide] | 0.24 |  | 
12 | COc1ccc(CNC=O)cc1-n1nc2c(c1C(C)C)C(c1ccc(Cl)cc1C)N(c1cc(Cl)ccc1C)C(=O)N2 (stereo not shown) [Example 27, N-(3-(4-(4-Chloro-2-methylphenyl)-5-(5-chloro-2-methylphenyl)-3-isopropyl-6-oxo-4,5,6,7-tetrahydro-2H-pyrazolo[3,4-d]pyrimidin-2-yl)-4-methoxybenzyl)formamide] | 0.11 |  | 
13 | Cc1cc(Cl)ccc1C1c2c(nn(Cc3ccccc3)c2C(C)C)NC(=O)N1c1cccc(Cl)c1F (stereo not shown) [Example 1, 2-Benzyl-5-(3-chloro-2-fluoro-phenyl)-4-(4-chloro-2-methyl-phenyl)-3-isopropyl-2,4,5,7-tetrahydro-pyrazolo[3,4-d]pyrimidin-6-one] |  | 1.8 | 34700
14 | COc1ccc(CN)cc1-n1nc2c(c1C(C)C)C(c1ccc(Cl)cc1C)N(c1cc(Cl)ccc1C)C(=O)N2 (stereo not shown) [Example 25, 2-(5-(Aminomethyl)-2-methoxyphenyl)-4-(4-chloro-2-methylphenyl)-5-(5-chloro-2-methylphenyl)-3-isopropyl-4,5-dihydro-2H-pyrazolo[3,4-d]pyrimidin-6(7H)-one] | 0.12 |  | 
15 | COc1ccccc1-n1nc2c(c1C(C)C)[C@@H](c1ccc(Cl)cc1C)N(c1cccc(Cl)c1F)C(=O)N2 [Example 7, (R)-5-(3-Chloro-2-fluoro-phenyl)-4-(4-chloro-2-methyl-phenyl)-3-isopropyl-2-(2-methoxy-phenyl)-2,4,5,7-tetrahydro-pyrazolo[3,4-d]pyrimidin-6-one] |  | 62.2 | 19100
16 | COc1ccc(C#N)cc1-n1nc2c(c1C(C)C)C(c1ccc(Cl)cc1C)N(c1cc(Cl)ccc1C)C(=O)N2 (stereo not shown) [Example 23, 3-(4-(4-Chloro-2-methylphenyl)-5-(5-chloro-2-methylphenyl)-3-isopropyl-6-oxo-4,5,6,7-tetrahydro-2H-pyrazolo[3,4-d]pyrimidin-2-yl)-4-methoxybenzonitrile] | 0.15 |  | 
17 | COCCn1cc(N2C(=O)Nc3nn(-c4ccccc4OC)c(C(C)C)c3C2c2ccc(Cl)cc2)cc(Cl)c1=O (stereo not shown) [Example 16, 5-[5-Chloro-1-(2-methoxy-ethyl)-6-oxo-1,6-dihydro-pyridin-3-yl]-4-(4-chloro-phenyl)-3-isopropyl-2-(2-methoxy-phenyl)-2,4,5,7-tetrahydro-pyrazolo[3,4-d]pyrimidin-6-one] |  | 5.6 | 8570
18 | COc1ccc(CNC(C)=O)cc1-n1nc2c(c1C(C)C)C(c1ccc(Cl)cc1C)N(c1cc(Cl)ccc1C)C(=O)N2 (stereo not shown) [Example 26, N-(3-(4-(4-Chloro-2-methylphenyl)-5-(5-chloro-2-methylphenyl)-3-isopropyl-6-oxo-4,5,6,7-tetrahydro-2H-pyrazolo[3,4-d]pyrimidin-2-yl)-4-methoxybenzyl)acetamide] | 0.13 |  | 
19 | COc1ccc(C#N)cc1-n1nc2c(c1C(C)C)C(c1ccc(Cl)cc1C)N(c1cc(Cl)c(=O)n(C)c1)C(=O)N2 (stereo not shown) [Example 24, 3-(5-(5-Chloro-1-methyl-6-oxo-1,6-dihydropyridin-3-yl)-4-(4-chloro-2-methylphenyl)-3-isopropyl-6-oxo-4,5,6,7-tetrahydro-2H-pyrazolo[3,4-d]pyrimidin-2-yl)-4-methoxybenzonitrile] | 0.14 |  | 
